The values below come from patent publication US20250179519A1, “PROCESS TO ENHANCE VIRAL VECTOR PRODUCTION IN CELL-CULTURE USING GLYCYL-GLUTAMINE” (Evonik Operations GmbH, priority 2022, published 2025).

In one series the test system is HEK Expi293F cells. The series is described as follows: Transfection efficiency via GFP expression by flow cytometry. Type of series: cell-based. Particulars: for transfection efficiency: 96 h post transfection, 8 mM supplement. The protocol:
(§1) A lab study to evaluate the influence of glutamine-dipeptides on viral vector production (AAV8) was conducted. HEK293 cells (HEK Expi293F cells, Thermo Fisher Scientific) were pre-cultured in shake flasks in a commercial culture medium recommended for viral vector production (Freestyle F17 Expression medium, Gibco, Thermo Fisher Scientific). After thawing the cells in 20 ml of the respective media variant (final concentration of glutamine or glutamine dipeptide in media variants was 8 mM) in 125 mL shake flasks, they were cultivated for five passages at 37° C. (185 rpm/50 mm orbit, 5% CO2) following a passaging rhythm of 3-4 days. For production, cells were split into three replicates each with a seeding viable cell density of 2×10^6 cells/mL (day 0) in 22 mL of the respective media variant. They were transfected with polyethylenimine (PEI MAX, Polysciences) with a 2-plasmid system for AAV8 (Plasmid Factory) featuring green fluorescent protein (GFP) as gene of interest 24 hours after inoculation (day 1). Again, media variants were supplemented by glutamine (Gln), alanyl-glutamine (Ala-Gln, via the liquid supplement, GlutaMAX™, Gibco, Thermo Fisher Scientific) or glycyl-glutamine hydrate (Gly-Gln, cQrex® GQ, Evonik Operations) to a final concentration glutamine or glutamine dipeptide of 8 mM (each n=3).
(§2) To analyze cell culture performance in the different media supplementations viable cell density and viability were determined via automated cell counter. Ammonium (fluorometric approach) as well as glucose and lactate concentration (enzymatic-amperometric method) were determined during preculture and AAV8 production phase on samples from one shake flask per supplement. Transfection efficiency was determined via GFP expression by flow cytometry 48, 72 and 96 h post-transfection. For AAV8 titer determination, samples of all replicates (supernatants only) were taken 96 and 120 h post-transfection and analyzed via qPCR (genomic titer) and ELISA (capsid titer).
On the technique in general: In flow cytometry, cells or beads pass a laser one at a time.

Series [1] relates to AAV8 production in HEK Expi293F cells. The experiment in a line: Genomic AAV8 titer from supernatant by qPCR. Particulars: 8 mM supplement; for genomic AAV8 titer: supernatant. The class given is cell-based. On the procedure:
as §1, §2
(In general: In qPCR the cycle at which signal appears reflects the starting amount.)

For series [2] the test system is unchanged. The experiment in a line: AAV8 capsid titer from supernatant by ELISA. Type of series: cell-based. Particulars: 96 h and 120 h post transfection. The protocol:
A lab study to evaluate the influence of glutamine-dipeptides on viral vector production (AAV8) was conducted. HEK293 cells (HEK Expi293F cells, Thermo Fisher Scientific) were pre-cultured in shake flasks in a commercial culture medium recommended for viral vector production (Freestyle F17 Expression medium, Gibco, Thermo Fisher Scientific). After thawing the cells in 20 ml of the respective media variant (final concentration of glutamine or glutamine dipeptide in media variants was 8 mM) in 125 mL shake flasks, they were cultivated for five passages at 37° C. (185 rpm/50 mm orbit, 5% CO2) following a passaging rhythm of 3-4 days. […]
as §2

For series [3] the following is noted: compared with glutamine; cited from earlier work.
The next series has as its system mouse hybridoma (CC9C10). Conditions: CC9C10 culture; Gly-Gln 20 mM, Ala-Gln 6 mM; cited from earlier work.
For series [4] the following is noted: at 20° C. in water; cited from earlier work.
The subject of series [5] is AAV8 production in HEK Expi293F cells. The series is described as follows: Full/empty ratio (genomic titer vs. capsid titer). Type of series: cell-based. Particulars: from mean values. The protocol:
In a preferred embodiment, the “full/empty ratio” shall be defined as viral genome titer (vg) divided by viral particle titer (vp). A suitable method to determine vg is quantitative polymerase chain reaction (qPCR). A suitable method to measure vp titer including intact virions and empty capsids is serotype-specific enzyme-linked immunosorbent assay (ELISA).
as §2
The full/empty ratio (ratio genomic titer in vg/mL vs. capsid titer in vp/mL) was calculated using the mean values for both sampling points (FIG. 11). The full/empty ratio varied between 14-22% for the 96 h post transfection time point and between 13-21% for the 120 h post transfection time point. […]

Peptide text beside a SMILES is read from it.

As usually defined, the solubility is the concentration that dissolves in the medium under given conditions.

In the case of `C[C@H](N)C(=O)N[C@@H](CCC(N)=O)C(=O)O` [Ala-Gln, alanyl-glutamine, reference compound] (H-Ala-Gln-OH), the transfection efficiency with HEK Expi293F cells is reported as 98%. Besides, the “genomic titer, comparison between supplements” value in series [1] was “comparable to the other processes”. For the same compound, the “capsid titer compared to cultures supplemented with Gln” value in series [2] was “higher capsid titers”. The “stability during autoclaving and storage” value in series [3] is on record as “comparably stable”. Moreover, in the series on mouse hybridoma (CC9C10), the cell yields result was “high cell yields” and the monoclonal antibody production result is “comparable”.
In turn, `NC(=O)CC[C@H](N)C(=O)O` [Gln, L-glutamine] yielded a transfection efficiency in the series with HEK Expi293F cells of 98%. For the same compound, in the series on mouse hybridoma (CC9C10), the monoclonal antibody production result is “comparable”.
In the series with HEK Expi293F cells, `NCC(=O)N[C@@H](CCC(N)=O)C(=O)O.O` [Gly-Gln, Glycyl-L-Glutamine hydrate] (H-Gly-Gln-OH) yielded a transfection efficiency of 98%. Moreover, in the series on HEK Expi293F cells (Gln vs Ala-Gln vs Gly-Gln, 8 mM), the “transfection efficiency, comparison between supplements” value is listed as “highest transfection efficiency”. The “relative fluorescence, comparison between supplements” value in the series with HEK Expi293F cells (all sampling points (48, 72, 96 h)) was “highest relative fluorescence”. Also, the “genomic AAV8 titer” value in series [1] (96 h post transfection) is reported as 7.3×10^10 vg/mL; in series [1] (120 h post transfection) it was 8.2×10^10 vg/mL. Further, in series [2], the “capsid titer compared to cultures supplemented with Gln” value is “higher capsid titers”. The “stability during autoclaving and storage” value in series [3] is listed as “comparably stable”. In addition, the solubility in series [4] is 154 mg/mL. For the same compound, the figures for the full/empty ratio in series [5] (96 h post transfection) and in series [5] (120 h post transfection) were 22% and 21%, respectively. Besides, in the series with mouse hybridoma (CC9C10), the cell yields result is given as “high cell yields”. Further, the monoclonal antibody production result with mouse hybridoma (CC9C10) was “comparable”.
